# Reference: ChEMBL document CHEMBL5728788, “Inhibitors of dihydroceramide desaturase for treating disease” (2021)
# Target: T1, Sphingolipid delta(4)-desaturase DES1 (Homo sapiens, UniProt O15121)
# T1 sequence (O15121 whole entry): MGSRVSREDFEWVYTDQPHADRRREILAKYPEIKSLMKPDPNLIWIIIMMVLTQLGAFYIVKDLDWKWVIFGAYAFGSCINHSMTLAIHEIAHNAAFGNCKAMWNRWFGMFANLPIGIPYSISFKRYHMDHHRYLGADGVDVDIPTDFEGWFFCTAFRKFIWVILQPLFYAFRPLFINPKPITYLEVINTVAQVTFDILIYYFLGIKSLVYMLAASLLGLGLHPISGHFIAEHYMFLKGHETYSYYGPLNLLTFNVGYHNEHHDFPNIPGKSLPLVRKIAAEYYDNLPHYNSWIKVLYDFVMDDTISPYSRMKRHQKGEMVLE
# Assay: Des1 Activity Assays: Jurkat clone E6-1 cells were grown and then seeded at 10^6 cells/mL in a 96-well plate (400 μL in each well. The cells were administered 100 μL of cell culture media containing 50-μM NBD-C6-dihydroceramide (Des1 substrate), affording a final concentration of substrate of 10 μM. The cells were incubated with substrate at 4° C. for 30 minutes. Following the incubation at 4° C., the cell suspension was centrifuged at 1200 rpm for 3 minutes, and the cell pellet is resuspended in 400 μL of fresh media containing various concentrations of either fenretinide (known Des1 inhibitor control compound) or test article. The final concentrations of control compound and test compounds were tested in a range from 0-10 μM. The cells and compounds were incubated at 37° C. for 3 hours. Following the 3-hour incubation, the plate was centrifuged at 2500 g for 3 minutes at 4° C., followed by collection and transfer of 200 μL of the supernatant to a new 96-well plate with 300 μL of methanol an containing appropriate internal standards for liquid chromatography/tandem mass spectroscopy (LC/MS/MS) analysis (internal standard: 500 nM labetalol and 100 nM alprazolam). The samples were vortexed for 2 minutes followed by centrifugation at 3,220 g for 20 minutes. Following centrifugation, 200 μL of the supernatant was transferred to a new 96-well plate for LC-MS/MS analysis to determine the amount of NBD-C6-ceramide (Des1 product) produced. The assay was typically performed in duplicate. A reduction of at least 30% compared to vehicle control (0 μM test article) is indicative of an active compound, and a reduction of 75% compared to vehicle control is preferred.
# Type: cell-based
row,SMILES,IC50
1,O=C(CC1CCN(c2ccc(Cl)cn2)CC1)Nc1ccc(O)cn1,3.9 nM
2,O=C(Cc1ccccc1)Nc1ccc(O)cn1,4500 nM
3,O=C(Nc1ccc(O)cn1)c1ccc(-c2cccnc2)cc1,130 nM
